Values of other authors as cited in PMC3918245 (ChemMedChem, 2013).

System: deep-pocket MMPs
Details: semi-selective inhibition; specific inhibitors of MMP-8 and MMP-12

O=C(NCc1ccc(-c2ccccc2)cc1)c1cccc(=O)n1O [1,2-HOPO-2]
IC50 against deep-pocket MMPs: low nanomolar range
